According to the supplement of paper PMC10307832:

Assays:
Experiment in all cases: relative viability (nuclei count vs DMSO), 5 days (fraction); higher = more cells survive
[1] = compound: CC1=NC=CC(=C1)C2=CC=C(C=C2)CC(=O)NC3=CC=C(C=C3)C4=CN=CC=C4 [Wnt-C59] + Cc1nc(Nc2ncc(C(=O)Nc3c(C)cccc3Cl)s2)cc(N2CCN(CCO)CC2)n1 [Dasatinib] (partner 0.075 µM)
Procedure, shortened: (§1)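 Medians of duplicate plates are given as relative viability. That measure is the nuclei count in treated wells divided by the count in vehicle wells. Counts were taken on 4× images of lung cancer cell lines in 1536-well plates, 5 days after pin-tool dosing the day after seeding with one drug alone or a fixed anchor-drug dose plus five library-drug doses (not always all listed) in √10 steps.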

[2] = compound: CC1=NC=CC(=C1)C2=CC=C(C=C2)CC(=O)NC3=CC=C(C=C3)C4=CN=CC=C4 [Wnt-C59] + NC(=O)Nc1cc(-c2cccc(F)c2)sc1C(=O)N[C@H]1CCCNC1 [AZD7762] (partner 0.2 µM)
Procedure, shortened: as §1

[3] = compound: CC1=NC=CC(=C1)C2=CC=C(C=C2)CC(=O)NC3=CC=C(C=C3)C4=CN=CC=C4 [Wnt-C59] + O=C(CCCCCCC(=O)Nc1ccccc1)NO [Vorinostat] (partner 1 µM)
Procedure, shortened: as §1

[4] = compound: CS(=O)(=O)CCNCc1ccc(-c2ccc3ncnc(Nc4ccc(OCc5cccc(F)c5)c(Cl)c4)c3c2)o1 [Lapatinib] + C[C@@H](Oc1cc(-c2cnn(C3CCNCC3)c2)cnc1N)c1c(Cl)ccc(F)c1Cl [Crizotinib] (partner 1 µM)
Procedure, shortened: as §1

Cell Line	relative viability ([1]; first compound 0.001 µM)	relative viability ([1]; first compound 0.01 µM)	relative viability ([1]; first compound 0.03162 µM)	relative viability ([1]; first compound 0.1 µM)	relative viability ([2]; first compound 0.001 µM)	relative viability ([2]; first compound 0.01 µM)	relative viability ([2]; first compound 0.03162 µM)	relative viability ([2]; first compound 0.1 µM)	relative viability ([3]; first compound 0.001 µM)	relative viability ([3]; first compound 0.01 µM)	relative viability ([3]; first compound 0.03162 µM)	relative viability ([3]; first compound 0.1 µM)	relative viability ([4]; first compound 0.02 µM)	relative viability ([4]; first compound 0.06325 µM)	relative viability ([4]; first compound 0.2 µM)	relative viability ([4]; first compound 0.6325 µM)	relative viability ([4]; first compound 2 µM)
HARA	0.249	0.208	0.293	0.32	0.408	0.348	0.38	1.61	0.729	0.533	0.511	0.481	1.04	1.28	0.932	0.934	0.447
H3255	0.425	0.359	0.32	0.335	0.927	0.922	0.953	0.828	0.79	0.71	0.95	0.86	0.752	0.687	0.888	0.702	0.311
NCI-H322M	0.266	0.26	0.216	0.228	0.575	0.577	0.511	0.536	0.86	0.816	0.746	0.93	0.823	0.649	0.912	0.857	0.735
NCI-H1666	0.803	0.84	0.836	0.795	0.95	0.819	0.82	0.857	0.964	1	0.913	1.05	0.787	1.05	0.847	0.842	0.357
HCC-366	0.678	0.621	0.594	0.487	0.271	0.247	0.286	0.322	0.338	0.2	0.309	0.335	–	0.418	0.713	0.564	0.372
LU99A	0.55	0.506	0.501	0.538	0.374	0.491	0.338	0.313	0.486	0.474	0.484	0.442	0.591	0.464	0.53	0.582	0.597
NCI-H460	0.482	0.483	0.524	0.531	0.554	0.605	0.568	0.673	0.688	0.711	0.743	0.648	0.892	0.953	1.11	0.802	0.983
RERF-LC-KJ	0.866	0.847	1.04	0.79	0.965	0.934	1.19	0.912	0.746	0.671	0.825	0.715	0.803	0.802	0.86	0.876	0.726
NCI-H2087	0.733	0.868	0.943	0.806	1.43	1.37	1.28	1.2	0.905	0.336	0.788	0.764	0.876	0.88	1.1	0.692	0.766
NCI-H1944	0.24	0.218	0.195	0.179	0.474	0.482	0.452	0.534	0.621	0.552	0.57	0.621	–	–	0.811	0.808	0.56
NCI-H838	0.291	0.29	0.288	0.302	0.958	0.942	0.966	0.883	0.709	0.704	0.786	0.708	0.838	0.764	1.07	0.855	0.757
NCI-H2126	0.658	0.592	0.647	0.61	1.01	1.02	1.02	1.05	0.841	0.62	0.788	0.76	–	0.879	1.02	1.04	0.865
NCI-H1975	0.412	0.31	0.349	0.447	0.72	0.653	0.724	0.773	0.727	0.76	0.756	0.706	0.949	0.837	1.05	0.85	0.736
NCI-H727	0.298	–	0.363	0.388	0.776	0.528	0.598	0.687	1.14	1.16	1.09	1.14	0.77	0.663	0.657	0.718	0.572
NCI-H650	0.43	0.512	0.457	0.526	0.883	1.03	0.969	1.24	0.45	0.449	0.464	0.448	–	0.637	0.872	0.624	0.69
A-427	0.71	0.682	0.768	0.798	0.801	0.815	0.831	0.688	0.851	0.878	0.874	0.895	–	0.804	0.945	0.936	0.77

Cell Line	relative viability ([1]; first compound 0.001 µM)	relative viability ([1]; first compound 0.01 µM)	relative viability ([1]; first compound 0.03162 µM)	relative viability ([1]; first compound 0.1 µM)	relative viability ([2]; first compound 0.001 µM)	relative viability ([2]; first compound 0.01 µM)	relative viability ([2]; first compound 0.03162 µM)	relative viability ([2]; first compound 0.1 µM)	relative viability ([3]; first compound 0.001 µM)	relative viability ([3]; first compound 0.01 µM)	relative viability ([3]; first compound 0.03162 µM)	relative viability ([3]; first compound 0.1 µM)	relative viability ([4]; first compound 0.02 µM)	relative viability ([4]; first compound 0.06325 µM)	relative viability ([4]; first compound 0.2 µM)	relative viability ([4]; first compound 0.6325 µM)	relative viability ([4]; first compound 2 µM)
NCI-H1993	0.601	–	0.631	0.631	0.965	0.665	1.05	0.769	0.78	0.758	0.978	0.394	0.854	–	0.796	0.737	0.742
CAL-12T	0.505	0.391	0.475	0.437	0.595	0.588	0.505	0.631	0.808	0.82	0.975	0.805	0.593	0.59	0.575	0.57	0.326
NCI-H441	0.56	0.637	0.615	0.298	1.19	1.35	1.48	0.997	0.786	0.867	0.806	0.887	0.681	0.861	0.803	0.689	0.721
NCI-H1437	0.378	0.308	0.384	0.495	1.14	1.16	1.18	1.08	0.838	0.806	0.829	0.8	0.85	0.919	0.94	0.914	1
BEN	0.329	0.3	0.35	0.385	0.823	0.623	0.761	0.856	0.581	0.523	0.675	0.579	0.826	0.672	1.06	0.828	0.747
LOU-NH91	0.6	0.529	0.523	0.57	0.765	0.67	0.778	0.761	0.868	0.864	0.886	0.978	0.697	0.626	0.599	0.547	0.534
PC-3 [JPC-3]	1.01	1.05	1.13	1.07	0.883	1.05	0.758	0.927	0.781	0.917	0.785	1.13	–	0.965	1.09	0.998	0.656
NCI-H1355	0.725	0.533	0.711	0.617	0.81	0.753	0.753	0.766	0.639	0.529	0.601	0.596	–	0.854	1.02	1.02	0.606
NCI-H358	0.177	0.154	0.145	0.152	0.448	0.582	0.588	0.617	0.803	0.589	0.8	0.65	0.577	–	0.523	0.363	0.26
EKVX	0.575	0.511	0.527	0.451	0.871	–	0.689	0.651	0.805	0.585	0.574	0.557	0.868	0.68	0.89	0.647	0.214
HCC-78	0.392	0.428	0.387	0.419	0.59	0.653	0.688	0.624	0.439	0.407	0.476	0.484	–	0.236	0.315	0.297	0.229
NCI-H2085	0.282	0.236	0.269	0.249	0.901	0.865	1.06	0.957	0.758	0.717	0.811	0.756	0.824	0.996	0.759	0.807	0.616
NCI-H23	0.885	0.734	0.829	0.698	0.244	0.257	0.243	0.296	0.499	0.541	0.737	0.59	–	–	0.504	0.396	0.412
NCI-H647	0.193	0.166	0.2	0.152	0.554	0.389	0.502	0.472	0.577	0.582	0.957	0.585	1.01	0.904	1.03	1.03	0.923
NCI-H1651	0.385	0.421	0.405	0.447	0.502	0.394	0.551	0.459	0.557	0.6	0.597	0.63	0.907	0.845	0.884	0.849	0.904
PC-14	0.309	0.257	0.242	0.241	0.414	0.367	0.351	0.457	0.815	0.96	0.886	0.723	0.815	0.9	0.946	0.898	0.826
